Broadly, the AC50 is the midpoint of the concentration-response curve, whichever way the signal moves. Usually IC50 stands for the concentration needed to halve the response being measured. What is called EC50 is the concentration at which the effect is half-maximal.

Calls of active or inactive are those of the source.

This is an account of results in ChEMBL document CHEMBL1201862, “PubChem BioAssay data set” (2004).

The target in test [1] is T1, Long-chain-fatty-acid--AMP ligase FadD28 (Mycobacterium tuberculosis, UniProt P9WQ59).
T1 sequence (P9WQ59 whole entry): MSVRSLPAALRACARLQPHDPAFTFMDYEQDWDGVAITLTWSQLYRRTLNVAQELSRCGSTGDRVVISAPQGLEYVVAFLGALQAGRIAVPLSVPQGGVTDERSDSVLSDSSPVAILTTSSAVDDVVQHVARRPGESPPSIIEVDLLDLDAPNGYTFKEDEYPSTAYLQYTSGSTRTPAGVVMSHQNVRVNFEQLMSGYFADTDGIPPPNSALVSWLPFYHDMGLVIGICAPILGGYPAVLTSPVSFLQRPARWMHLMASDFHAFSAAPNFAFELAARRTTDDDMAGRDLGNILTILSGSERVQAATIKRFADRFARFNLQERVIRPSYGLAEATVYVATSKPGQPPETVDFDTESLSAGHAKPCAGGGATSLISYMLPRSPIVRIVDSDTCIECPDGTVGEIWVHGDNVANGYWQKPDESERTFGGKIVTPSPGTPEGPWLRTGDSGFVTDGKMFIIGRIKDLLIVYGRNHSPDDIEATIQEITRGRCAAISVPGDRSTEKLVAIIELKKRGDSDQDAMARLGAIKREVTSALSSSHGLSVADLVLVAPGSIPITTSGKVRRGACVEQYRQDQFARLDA
Briefly: Fluorescence polarization aasay to screen for inhibitors that compete for the binding of FadD28 to a bisubstrate Measured in Biochemical System Using Plate Reader - 2147-01_Inhibitor_Dose_CherryPick_Activity. It is filed as functional, Mycobacterium tuberculosis H37Rv. On the technique in general: Polarisation of emitted light reports the rotation of a fluorescent probe.

The target in test [2] is T2, Fatty acid synthase (Homo sapiens, UniProt P49327). Nature of the test: inhibition of human FAS-TE enzyme activity – biochemical, endpoint fluorescence intensity, uHTS hits, dose response (AID 624327).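 Note: fluorescence from hydrolysis of an O-methyl fluorescein acyl ester substrate by the enzyme.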 It is filed as functional.
T2 sequence (P49327 whole entry): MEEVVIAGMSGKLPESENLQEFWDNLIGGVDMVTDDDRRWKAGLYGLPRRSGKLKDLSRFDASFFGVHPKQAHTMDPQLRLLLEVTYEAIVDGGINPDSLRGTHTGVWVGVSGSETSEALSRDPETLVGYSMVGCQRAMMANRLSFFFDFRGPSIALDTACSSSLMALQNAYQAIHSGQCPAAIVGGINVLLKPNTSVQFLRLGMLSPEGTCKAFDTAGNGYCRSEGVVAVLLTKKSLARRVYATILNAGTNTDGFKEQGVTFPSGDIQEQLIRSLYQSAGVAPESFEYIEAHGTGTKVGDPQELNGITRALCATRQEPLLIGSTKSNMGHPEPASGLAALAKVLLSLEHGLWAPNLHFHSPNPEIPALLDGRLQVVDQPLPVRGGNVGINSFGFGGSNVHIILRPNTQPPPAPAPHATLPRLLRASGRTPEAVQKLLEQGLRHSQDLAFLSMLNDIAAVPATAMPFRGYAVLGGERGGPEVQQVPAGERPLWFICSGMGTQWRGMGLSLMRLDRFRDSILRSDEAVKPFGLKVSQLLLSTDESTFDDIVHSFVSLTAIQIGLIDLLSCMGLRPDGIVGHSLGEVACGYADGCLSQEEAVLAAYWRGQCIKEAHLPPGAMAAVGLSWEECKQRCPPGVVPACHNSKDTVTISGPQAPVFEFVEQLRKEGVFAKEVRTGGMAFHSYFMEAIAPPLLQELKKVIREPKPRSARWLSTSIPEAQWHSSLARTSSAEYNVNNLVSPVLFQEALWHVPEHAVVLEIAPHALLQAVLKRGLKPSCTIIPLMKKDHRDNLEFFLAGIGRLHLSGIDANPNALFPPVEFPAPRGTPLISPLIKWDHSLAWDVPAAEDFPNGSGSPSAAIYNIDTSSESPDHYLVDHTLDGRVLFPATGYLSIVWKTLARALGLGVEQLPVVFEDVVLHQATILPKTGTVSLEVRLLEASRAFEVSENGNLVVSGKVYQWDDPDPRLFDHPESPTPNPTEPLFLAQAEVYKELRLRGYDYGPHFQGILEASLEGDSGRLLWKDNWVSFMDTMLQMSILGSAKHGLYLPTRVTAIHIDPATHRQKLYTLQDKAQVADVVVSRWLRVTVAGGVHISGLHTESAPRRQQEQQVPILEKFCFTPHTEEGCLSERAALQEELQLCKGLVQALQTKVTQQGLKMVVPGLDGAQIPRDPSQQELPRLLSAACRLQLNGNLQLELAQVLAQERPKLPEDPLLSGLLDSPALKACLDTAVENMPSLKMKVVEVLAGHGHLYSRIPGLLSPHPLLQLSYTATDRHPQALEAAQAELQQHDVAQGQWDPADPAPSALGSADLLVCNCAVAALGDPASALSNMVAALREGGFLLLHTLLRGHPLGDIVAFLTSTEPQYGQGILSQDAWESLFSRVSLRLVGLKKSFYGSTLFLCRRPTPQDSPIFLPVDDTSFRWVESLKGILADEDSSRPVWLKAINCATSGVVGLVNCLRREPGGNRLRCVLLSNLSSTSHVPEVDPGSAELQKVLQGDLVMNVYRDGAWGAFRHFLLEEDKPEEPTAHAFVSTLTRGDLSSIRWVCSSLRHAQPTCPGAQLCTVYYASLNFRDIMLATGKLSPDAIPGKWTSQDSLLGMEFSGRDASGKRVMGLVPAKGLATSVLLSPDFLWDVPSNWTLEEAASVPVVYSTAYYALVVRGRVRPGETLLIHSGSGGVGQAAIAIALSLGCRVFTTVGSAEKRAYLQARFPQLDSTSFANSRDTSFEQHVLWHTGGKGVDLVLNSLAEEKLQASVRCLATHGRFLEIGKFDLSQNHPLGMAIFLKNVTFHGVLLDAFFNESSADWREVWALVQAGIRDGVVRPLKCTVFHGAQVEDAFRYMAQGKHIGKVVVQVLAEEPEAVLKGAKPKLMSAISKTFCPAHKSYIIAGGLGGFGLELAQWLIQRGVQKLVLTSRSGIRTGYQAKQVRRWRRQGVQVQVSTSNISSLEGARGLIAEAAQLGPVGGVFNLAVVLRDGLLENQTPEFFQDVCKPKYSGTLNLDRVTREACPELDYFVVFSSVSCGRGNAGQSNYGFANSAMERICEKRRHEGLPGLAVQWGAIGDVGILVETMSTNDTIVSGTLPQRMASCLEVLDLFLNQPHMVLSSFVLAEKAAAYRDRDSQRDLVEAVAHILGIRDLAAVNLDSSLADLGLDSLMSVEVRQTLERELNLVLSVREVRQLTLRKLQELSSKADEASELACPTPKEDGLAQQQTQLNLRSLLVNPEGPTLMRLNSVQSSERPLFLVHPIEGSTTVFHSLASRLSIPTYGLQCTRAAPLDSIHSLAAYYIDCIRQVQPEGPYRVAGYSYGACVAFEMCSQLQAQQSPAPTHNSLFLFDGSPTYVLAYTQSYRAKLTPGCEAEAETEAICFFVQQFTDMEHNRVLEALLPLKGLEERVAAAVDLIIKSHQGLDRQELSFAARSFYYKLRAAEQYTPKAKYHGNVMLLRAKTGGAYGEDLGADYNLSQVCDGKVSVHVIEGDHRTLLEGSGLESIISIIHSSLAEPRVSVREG
Test [3] deals with T2, Fatty acid synthase. Briefly: inhibition of human FAS-TE enzyme activity – biochemical, kinetic fluorescence intensity, dose response (AID 624326).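 Note: rate of fluorescence rise from hydrolysis of a fluorogenic O-methyl fluorescein ester substrate.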 The format is functional.
Test [4] in a line: cells. It is filed as functional, cell-based. As to conditions: HEK-CNG.
The target in a further test is Paired box protein Pax-8 (Homo sapiens, UniProt Q06710). Nature of the test: PAX8 transcriptional activity inhibition in RMG-I – RMG-I cells, luciferase, cherry-pick, dose response (AID 687027).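 Note: luciferase reporter driven by Pax8 target thyroperoxidase promoter measured by SteadyGlo luminescence.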 The format is functional, cell-based.
Paired box protein Pax-8, sequence (Q06710 whole entry): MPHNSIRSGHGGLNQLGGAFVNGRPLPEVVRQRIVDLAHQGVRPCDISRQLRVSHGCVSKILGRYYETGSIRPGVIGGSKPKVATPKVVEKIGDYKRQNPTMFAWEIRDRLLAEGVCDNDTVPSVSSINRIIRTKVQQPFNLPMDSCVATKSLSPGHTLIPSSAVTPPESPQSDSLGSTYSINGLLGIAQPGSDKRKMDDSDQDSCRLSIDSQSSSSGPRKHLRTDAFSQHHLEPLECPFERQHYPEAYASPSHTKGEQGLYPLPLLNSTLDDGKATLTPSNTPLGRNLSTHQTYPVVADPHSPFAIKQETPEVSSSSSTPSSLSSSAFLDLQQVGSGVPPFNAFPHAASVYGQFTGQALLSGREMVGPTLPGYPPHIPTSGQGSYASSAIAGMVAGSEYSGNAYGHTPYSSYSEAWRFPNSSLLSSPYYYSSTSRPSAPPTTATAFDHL
In a further test the target is T3, Galanin receptor type 3 (Homo sapiens, UniProt O60755).
T3 sequence (O60755 whole entry): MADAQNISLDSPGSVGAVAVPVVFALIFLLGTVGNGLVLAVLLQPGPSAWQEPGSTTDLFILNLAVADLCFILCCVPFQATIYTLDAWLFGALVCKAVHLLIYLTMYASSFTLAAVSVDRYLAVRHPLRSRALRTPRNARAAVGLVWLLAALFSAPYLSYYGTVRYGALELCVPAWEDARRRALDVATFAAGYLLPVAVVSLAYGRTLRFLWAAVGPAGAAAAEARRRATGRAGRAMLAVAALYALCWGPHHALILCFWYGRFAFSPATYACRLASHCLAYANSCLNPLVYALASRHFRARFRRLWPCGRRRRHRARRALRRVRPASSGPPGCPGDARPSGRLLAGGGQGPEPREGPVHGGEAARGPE
Briefly: Fluorescence-based cell-based primary high throughput dose response assay to identify antagonists of the Galanin Receptor 3 (GalR3). It is filed as functional.

Test [5] concerns the target T4, Histone-lysine N-methyltransferase NSD2 (Homo sapiens, UniProt O96028).
T4 sequence (O96028 whole entry): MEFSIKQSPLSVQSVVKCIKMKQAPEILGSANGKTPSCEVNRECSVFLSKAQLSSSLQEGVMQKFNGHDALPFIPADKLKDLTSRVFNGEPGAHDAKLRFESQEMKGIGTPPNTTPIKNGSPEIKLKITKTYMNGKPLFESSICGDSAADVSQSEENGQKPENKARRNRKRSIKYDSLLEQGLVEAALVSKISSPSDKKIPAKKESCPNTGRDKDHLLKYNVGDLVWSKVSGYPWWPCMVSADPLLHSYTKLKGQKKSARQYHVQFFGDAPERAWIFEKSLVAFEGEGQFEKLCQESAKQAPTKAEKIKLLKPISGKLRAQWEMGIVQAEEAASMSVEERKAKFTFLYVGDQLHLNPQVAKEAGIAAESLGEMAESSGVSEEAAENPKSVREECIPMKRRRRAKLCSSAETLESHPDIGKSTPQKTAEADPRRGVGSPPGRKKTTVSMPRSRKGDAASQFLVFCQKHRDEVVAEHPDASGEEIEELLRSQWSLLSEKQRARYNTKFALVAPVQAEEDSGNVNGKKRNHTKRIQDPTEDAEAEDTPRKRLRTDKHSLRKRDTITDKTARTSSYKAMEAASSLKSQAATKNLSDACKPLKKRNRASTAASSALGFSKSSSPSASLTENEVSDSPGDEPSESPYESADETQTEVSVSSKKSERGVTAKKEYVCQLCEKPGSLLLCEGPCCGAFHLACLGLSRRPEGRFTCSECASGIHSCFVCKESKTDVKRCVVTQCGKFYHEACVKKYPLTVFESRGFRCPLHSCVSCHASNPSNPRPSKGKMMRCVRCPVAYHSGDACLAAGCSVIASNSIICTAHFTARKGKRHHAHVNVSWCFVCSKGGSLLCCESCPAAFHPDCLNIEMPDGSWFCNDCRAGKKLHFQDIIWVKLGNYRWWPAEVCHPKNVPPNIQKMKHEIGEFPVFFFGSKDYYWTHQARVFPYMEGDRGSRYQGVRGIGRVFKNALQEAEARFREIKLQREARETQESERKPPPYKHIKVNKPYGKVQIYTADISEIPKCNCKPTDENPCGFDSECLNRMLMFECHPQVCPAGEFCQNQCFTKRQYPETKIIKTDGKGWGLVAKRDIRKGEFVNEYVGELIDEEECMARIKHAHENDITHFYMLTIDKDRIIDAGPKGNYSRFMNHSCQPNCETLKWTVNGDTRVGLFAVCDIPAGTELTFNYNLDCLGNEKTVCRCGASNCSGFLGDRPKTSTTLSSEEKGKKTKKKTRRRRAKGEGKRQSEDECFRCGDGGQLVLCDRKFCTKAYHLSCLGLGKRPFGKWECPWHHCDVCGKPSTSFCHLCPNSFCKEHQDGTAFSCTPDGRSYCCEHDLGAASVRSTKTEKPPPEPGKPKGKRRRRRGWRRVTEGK
It is filed as biochemical.

For test [6], the target named is T5, Calpain-2 catalytic subunit (Sus scrofa, UniProt P43367).
T5 sequence (P43367 whole entry): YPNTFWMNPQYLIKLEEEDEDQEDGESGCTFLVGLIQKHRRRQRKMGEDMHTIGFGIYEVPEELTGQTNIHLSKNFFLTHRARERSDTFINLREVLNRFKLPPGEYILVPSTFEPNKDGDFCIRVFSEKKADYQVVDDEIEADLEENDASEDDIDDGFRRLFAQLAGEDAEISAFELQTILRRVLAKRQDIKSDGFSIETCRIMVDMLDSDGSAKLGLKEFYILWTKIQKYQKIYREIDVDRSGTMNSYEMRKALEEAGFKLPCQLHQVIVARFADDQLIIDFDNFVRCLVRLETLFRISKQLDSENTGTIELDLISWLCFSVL
Briefly: m-calpain protease blockers, concentration series – biochemical, fluorogenic peptide substrate, dose response (AID 1420). It is filed as functional.

Test [7] has as its target T6, Oxysterols receptor LXR-beta (Homo sapiens, UniProt P55055).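 Note: Cell-based luminescence dose-response assay of agonist activity at LXR, run as a confirmatory counterscreen to a daf-12 agonist screen; HEK293 cells with Gal4-LXR fusion and GAL4-driven luciferase reporter; agonist potency from rising luciferase signal of a Gal4-LXR reporter.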
T6 sequence (P55055 whole entry): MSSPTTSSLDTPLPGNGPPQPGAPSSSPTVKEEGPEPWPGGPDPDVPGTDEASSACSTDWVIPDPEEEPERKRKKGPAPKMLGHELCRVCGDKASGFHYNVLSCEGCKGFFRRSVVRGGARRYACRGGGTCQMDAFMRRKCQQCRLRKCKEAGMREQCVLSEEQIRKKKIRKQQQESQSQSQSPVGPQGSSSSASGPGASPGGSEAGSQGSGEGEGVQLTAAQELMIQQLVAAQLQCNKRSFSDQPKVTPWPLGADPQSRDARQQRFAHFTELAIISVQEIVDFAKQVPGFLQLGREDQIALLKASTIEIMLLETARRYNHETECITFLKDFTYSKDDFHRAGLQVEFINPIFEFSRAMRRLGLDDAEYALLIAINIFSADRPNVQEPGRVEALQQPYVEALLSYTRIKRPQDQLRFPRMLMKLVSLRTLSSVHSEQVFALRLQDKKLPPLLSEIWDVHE
It is filed as functional, cell-based.

A short description of test [8]: cells.
For test [9], the target named is T7, DNA repair protein RAD52 homolog (Homo sapiens, UniProt P43351).
T7 sequence (P43351 whole entry): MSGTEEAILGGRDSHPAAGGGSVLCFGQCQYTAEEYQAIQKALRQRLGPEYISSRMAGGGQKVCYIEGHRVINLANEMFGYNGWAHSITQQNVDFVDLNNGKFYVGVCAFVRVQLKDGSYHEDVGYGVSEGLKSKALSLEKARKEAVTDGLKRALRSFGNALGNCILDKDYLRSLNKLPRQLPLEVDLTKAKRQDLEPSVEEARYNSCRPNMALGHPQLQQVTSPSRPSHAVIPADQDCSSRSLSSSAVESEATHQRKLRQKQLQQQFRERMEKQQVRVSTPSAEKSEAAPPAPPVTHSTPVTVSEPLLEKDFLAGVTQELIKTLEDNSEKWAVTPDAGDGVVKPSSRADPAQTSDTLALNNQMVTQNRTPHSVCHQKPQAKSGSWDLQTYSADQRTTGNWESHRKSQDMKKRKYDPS
The format is functional, biochemical.

Test [10] deals with T8, Heat shock factor protein 1 (Mus musculus, UniProt P38532).
T8 sequence (P38532 whole entry): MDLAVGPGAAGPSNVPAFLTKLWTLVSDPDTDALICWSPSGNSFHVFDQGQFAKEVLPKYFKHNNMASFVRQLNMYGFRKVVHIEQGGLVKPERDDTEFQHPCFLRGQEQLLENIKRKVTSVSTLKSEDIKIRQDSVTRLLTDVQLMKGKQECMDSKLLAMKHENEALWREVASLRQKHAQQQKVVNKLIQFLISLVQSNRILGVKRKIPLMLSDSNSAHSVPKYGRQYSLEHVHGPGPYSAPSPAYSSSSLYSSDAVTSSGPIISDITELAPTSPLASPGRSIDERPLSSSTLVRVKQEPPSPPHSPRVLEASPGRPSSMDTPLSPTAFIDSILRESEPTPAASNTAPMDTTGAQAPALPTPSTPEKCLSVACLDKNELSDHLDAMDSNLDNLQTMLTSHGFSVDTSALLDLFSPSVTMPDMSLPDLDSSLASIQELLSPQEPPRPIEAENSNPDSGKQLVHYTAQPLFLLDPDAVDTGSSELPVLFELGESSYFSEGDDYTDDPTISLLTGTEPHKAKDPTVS
Nature of the test: enhancement of HSF1-driven luciferase signal – cell-based, NIH3T3, luminescence, dose retest, confirmation (AID 435004).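 Note: stress induced by proteasome inhibitor MG132 added 30 min after compound; luciferase reporter driven by HSF1 response element in NIH3T3 cells; actives raise luminescence as potentiators of the MG132 stress response.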 It is filed as functional.

On to `C/C(=N\Nc1ccc(Cl)c(C(=O)O)c1)c1ccc(Br)s1`, for which, in [1], the AC50 was > 100 µM (inactive).

Consider `Cc1cccc(C)c1Cn1c(C)c(C(=O)NCc2ccc([N+](=O)[O-])cc2)sc1=O`, for which the IC50 was 6.75 µM (active) on Fatty acid synthase [2] and 4.48 µM (active) at Fatty acid synthase [3]. Besides, the AC50 in test [1] was 20.5 µM (active).

On to `CC1OC(OC2C=C3CCC4C(CCC5(C)C(c6ccc(=O)oc6)CCC45O)C3(C)CC2)C(O)C(OC2OC(CO)C(O)C(O)C2O)C1O` (stereo unspecified), for which, in the test “cells [4]”, the EC50 was > 29.9 µM (inactive). Also, on Paired box protein Pax-8, the AC50 was < 0.26 µM (active). The IC50 on Galanin receptor type 3 is > 29.9 µM (inactive).

Consider `O=C1c2cccc(Sc3ccccc3)c2C(=O)c2c(Sc3ccccc3)cccc21`, for which the AC50 in test [5] is 5.27 µM (active). Moreover, in test [6], the IC50 is 6.16 µM (not active).

Consider `c1ccc(-c2csc(Nc3ccc4c(c3)OCO4)n2)cc1`, for which the EC50 (in test [7]; in “cells [8]”) was > 67.6 µM (inactive) in each case.

With `CCOC(=O)Cn1nnnc1C(C(C)C)N(Cc1cccs1)Cc1cc2cc(C)ccc2nc1O` (stereo unspecified), the EC50 in the test “cells [4]” is > 29.9 µM (inactive). The IC50 at Galanin receptor type 3 was > 29.9 µM (inactive).

With `CN1CCN(c2ccc(NC(=O)c3cc(S(N)(=O)=O)ccc3N3CCOCC3)cc2)CC1`, the AC50 in test [9] was 8.83 µM (active).

Consider `FC(F)(F)c1cccc(/C=N/NC(=S)NC2CCCCC2)c1`, for which the EC50 in the test “cells [4]” is > 29.9 µM (inactive). At Galanin receptor type 3, the IC50 is 3.19 µM (active).

Consider `C[C@H](NCCc1ccc(O)cc1)[C@H](O)c1ccc(O)cc1` [RITODRINE], for which, in “cells [4]”, the EC50 was > 29.9 µM (inactive). Also, the IC50 on Galanin receptor type 3 was 0.932 µM (active).

Turning to `O=C(CC(=O)Nc1ccccc1[N+](=O)[O-])Nc1ccccc1[N+](=O)[O-]`, the AC50 in test [1] was 32 µM (inactive).

For the compound `c1ccc2c(c1)COc1c3cc4c(cc3nn1-2)OCO4`, the EC50 (in test [7]; in “cells [8]”) was > 67.6 µM (inactive) throughout.

Turning to `COc1c(C(=O)Nc2nnc(C3CC3)s2)csc1Cl`, the EC50 (in test [7]; in the test “cells [8]”) was > 67.6 µM (inactive) each time.

As for `Nc1nn(-c2cccc(F)n2)cc1-c1ccc(Cl)cc1`, the EC50 in test [7] is > 67.6 µM (inactive); in the test “cells [8]”, > 67.6 µM (inactive); in test [10], > 260 µM (inconclusive).
